US6958141B2, “Rhenium and technetium complexes containing a hypoxia-localizing moiety” (Bracco International B.V., priority 1991, dated 2005)

What was measured:
[1] = Biodistribution of ^99mTc-complexes in normal (normoxic) Sprague-Dawley rats; format: in vivo; conditions: MEAN n=4
Protocol: Twelve Sprague-Dawley rats were anesthetized with Nembutal (50 mg/kg) and injected with 0.1 mL (20 μCi) of radioactivity via the jugular vein. At 1 minute, 5 minutes and 60 minutes after administration of the radiotracers (n=4 for all time points), the animals were sacrificed by exsanguination, and the target tissues removed, weighed and assayed for radioactivity. The rats were allowed to respire room air throughout the course of the study.

[2] = test system: hypoxic ischemic border zone; assay: Rabbit focal myocardial ischemia model (LAD occlusion), double-label autoradiography; format: in vivo; conditions: permanent LAD coronary artery ligation, intravenous tracer, heart sections, listed as 99mTc complex of the ligand described in Example 1
Protocol: A model of focal myocardial ischemia in the rabbit was developed, using permanent ligation of the left anterior descending (LAD) coronary artery. The model consisted of two studies. In the first, relative regional myocardial blood flow (MBF) and relative regional myocardial rate of glucose metabolism (MMRgl) were determined by autoradiography using a double-label study with the flow tracer ^99mTcCl(CDO)3MeB (R. K. Narra et al., J. Nucl. Med., 1989; 30:1830-1837) and ^14C-deoxy-glucose for MMRgl (L. Sokoloff et al., J. Neurochem., 1977, 28, 897-916). ^14C-deoxyglucose and the ^99mTc-hypoxia-localizing tracer were administered to a second group of rabbits with LAD coronary artery occlusion.
After the surgical preparation and 20 minutes of LAD occlusion, ^14C-deoxyglucose (130-150 μCi) was injected as an intravenous bolus, and timed arterial blood samples were obtained. Twenty-five minutes later, ^99mTcCl(CDO)3MeB (10-12 mCi) was administered intravenously. Five minutes later, the rabbits were sacrificed by intravenous injection of Nembutal and potassium chloride. The heart was excised, frozen in liquid Freon-22, and 20 μm coronal sections obtained with a Microtome. Autoradiographs were obtained on all sections. For the first exposure (˜14 hours duration) of Kodak XAR film, extra heavy duty aluminum foil was interposed between the tissue and film to block completely the radiation emanating from ^14C to obtain the MBF information derived from ^99mTcCl(CDO)3MeB alone. After three days (to allow for decay of ^99mTc); a second autoradiograph was obtained without foil. The second exposure lasted 6-8 days, and,provided an image of the regional distribution of ^14C-deoxyglucose.
In a separate experiment using the rabbit LAD occlusion model and the double-label autoradiography procedures described above, the performance of the ^99mTc complex of the ligand described in Example 1 was compared to that of ^14C-misonidazole.

[3] = test system: hypoxic border zone; assay: Rat focal cerebral ischemia model (MCA occlusion), double-label autoradiography; format: in vivo, spontaneously hypertensive rats (SHR); conditions: SHR, injected 1 hour or five days after MCA occlusion, both time points
Protocol: A model of focal cerebral ischemia involving tandem occlusion of the internal carotid artery and the ipsilateral middle cerebral artery (MCA) in spontaneously hypertensive rats (SHR) was characterized using the double-label autoradiography procedure described in Example 10. […] Following surgery, which was performed under Halothane anesthesia, the rats were allowed to recover and one hour after the MCA occlusion, ^14C-deoxyglucose was injected as an IV bolus and timed arterial samples were obtained. Twenty-five minutes after ^14C-deoxyglucose injection, ^99mTcCl(DMG)32MP was injected as an IV bolus and the rat was sacrificed 15 seconds later. The brain was rapidly removed and sections and autoradiograms were obtained as described in Example 10. As found in Example 10 for the rabbit LAD occlusion model, the ischemic territory was bordered by a rim of tissue in which glycolysis was elevated. […] Nevertheless, it was clear that the ischemic region is surrounded by a border zone of increased glycolysis. In a second series of experiments, the ^99mTc complex of the ligand described in Example 1 and ^14C-deoxyglucose were co-injected 1 hour or five days after MCA occlusion.

[4] = test system: Mitochondria; assay: Studies in isolated mitochondria; design: species or system male Sprague Dawley rats; conditions: 37° C. for 60 minutes, means ±S.E.M.
Protocol: Mitochondria were prepared from hearts of male Sprague Dawley rats (200 g) using the isolation procedure of Fuller et al., (E. O. Fuller, D. I. Golderg, J. W. Starnes, M. Sacks, and M. J. Delavoria-Papadopoulos, Mol. Cell. Cardiol., 17:71, 1985). The heart was excised from anesthetized rats and trimmed free of the atria and great vessels. The ventricles were minced in ice-cold isolation medium (0.225 M mannitol, 75 mM sucrose, 1.0 mM EGTA and 10 mM MOPS, pH 7.4), briefly exposed to the proteolytic enzyme preparation, Nagase (Enzyme Development Corp., New York, N.Y.), and homogenized with a polytron. The mitochondria were separated from the remainder of the broken cells using density gradient centrifugation.
Three nitroimidazole compounds were incubated at 37° C. for 60 minutes in isolated mitochodria. Hypoxia and anoxia were induced as outlined in Example 12.
Values are given in percent of total radioactivity within an aliquot and represent means ±S.E.M. Compounds were tested using the same preparation of mitochondria.

[5] = 1 Min. after jugular vein injection
[6] = 5 Min. after jugular vein injection
[7] = 60 Min. after jugular vein injection

In the case of “[^99mTc]Oxo[[3,3,9,9-tetramethyl-1-(2-nitro-1H-imidazo-1-yl)-4,8-diazaundecane-2,10-dione dioximato]-(3-)-N,N′,N″,N′″]technetium(V) [^99mTc complex from ligand in Ex. 1]”, the “Percent ID/g Bladder” value [1, 5] is reported as 0.15 Percent ID/g, the “Percent ID/g Blood” value [1, 5] is reported as 0.47 Percent ID/g and the “Percent ID/g Bone” value [1, 5] is reported as 0.37 Percent ID/g. The “Percent ID/g Brain” value [1, 5] was 0.30 Percent ID/g, the “Percent ID/g Heart” value [1, 5] was 1.32 Percent ID/g and the “Percent ID/g Kidneys” value [1, 5] was 2.59 Percent ID/g. The “Percent ID/g Liver” value [1, 5] was 2.06 Percent ID/g, the “Percent ID/g Lower Intestine” value [1, 5] was 0.50 Percent ID/g and the “Percent ID/g Lungs” value [1, 5] was 0.71 Percent ID/g. For the same substance, the “Percent ID/g Muscle” value [1, 5] was 0.25 Percent ID/g, the “Percent ID/g Spleen” value [1, 5] was 0.84 Percent ID/g and the “Percent ID/g Stomach” value [1, 5] was 0.67 Percent ID/g. For the same substance, the “Percent ID/g Thymus” value [1, 5] was 0.55 Percent ID/g, the “Percent ID/g Thyroid” value [1, 5] was 0.65 Percent ID/g and the “Percent ID/g Upper Intestine” value [1, 5] was 1.13 Percent ID/g. The “Percent ID/g Bladder” value [1, 6] was 0.68 Percent ID/g, the “Percent ID/g Blood” value [1, 6] was 0.36 Percent ID/g and the “Percent ID/g Bone” value [1, 6] was 0.23 Percent ID/g. The “Percent ID/g Brain” value [1, 6] was 0.11 Percent ID/g, the “Percent ID/g Heart” value [1, 6] was 0.34 Percent ID/g and the “Percent ID/g Kidneys” value [1, 6] was 1.15 Percent ID/g. The “Percent ID/g Liver” value [1, 6] was 3.63 Percent ID/g, the “Percent ID/g Lower Intestine” value [1, 6] was 0.40 Percent ID/g and the “Percent ID/g Lungs” value [1, 6] was 0.39 Percent ID/g. For the same substance, the “Percent ID/g Muscle” value [1, 6] was 0.14 Percent ID/g, the “Percent ID/g Spleen” value [1, 6] was 0.45 Percent ID/g and the “Percent ID/g Stomach” value [1, 6] was 0.56 Percent ID/g. For the same substance, the “Percent ID/g Thymus” value [1, 6] was 0.25 Percent ID/g, the “Percent ID/g Thyroid” value [1, 6] was 0.77 Percent ID/g and the “Percent ID/g Upper Intestine” value [1, 6] was 0.98 Percent ID/g. The “Percent ID/g Bladder” value [1, 7] was 2.84 Percent ID/g, the “Percent ID/g Blood” value [1, 7] was 0.28 Percent ID/g and the “Percent ID/g Bone” value [1, 7] was 0.11 Percent ID/g. For the same substance, the “Percent ID/g Brain” value [1, 7] was 0.02 Percent ID/g, the “Percent ID/g Heart” value [1, 7] was 0.09 Percent ID/g and the “Percent ID/g Kidneys” value [1, 7] was 0.45 Percent ID/g. The “Percent ID/g Liver” value [1, 7] was 2.45 Percent ID/g, the “Percent ID/g Lower Intestine” value [1, 7] was 0.36 Percent ID/g and the “Percent ID/g Lungs” value [1, 7] was 0.16 Percent ID/g. For the same substance, the “Percent ID/g Muscle” value [1, 7] was 0.05 Percent ID/g, the “Percent ID/g Spleen” value [1, 7] was 0.23 Percent ID/g and the “Percent ID/g Stomach” value [1, 7] was 1.80 Percent ID/g. The “Percent ID/g Thymus” value [1, 7] was 0.05 Percent ID/g, the “Percent ID/g Thyroid” value [1, 7] was 0.15 Percent ID/g and the “Percent ID/g Upper Intestine” value [1, 7] was 4.60 Percent ID/g. The “regional myocardial distribution pattern (autoradiography)” value [2] was “high uptake in the hypoxic border zone of the ischemic territory and low uptake in normoxic regions”, the “uptake in brain autoradiograms” value [3] was “increased uptake in the hypoxic border zone relative to surrounding normoxic tissue” and the “percentage of radioactivity associated with the mitochondria, Hypoxia” value [4] was 39.2 ± 1.0% of total radioactivity within an aliquot. The “percentage of radioactivity associated with the mitochondria, Normoxia” value [4] was 27.8 ± 1.2% of total radioactivity within an aliquot and the Hypoxia/normoxia ([4]; radioactivity associated with mitochondria) was 1.4 ± 0.1.
